Measured values as given in patent publication US12552825B2 (Zikani Therapeutics, Inc., priority 2019, dated 2026).
In brackets after ≈: the same amount, converted by molar mass.

How the values were obtained:
Assay type in all cases: cell-based
K. pneumoniae MP-648 = assay: MIC determination by CLSI broth dilution, K. pneumoniae MP-648; conditions: Klebsiella pneumoniae, MP648, CLSI broth dilution; strain MP-648
E. coli MP-4 = assay: MIC determination by CLSI broth dilution, E. coli MP-4; conditions: Escherichia coli, MP4, CLSI broth dilution; strain MP-4
A. baumannii MP-15 = assay: MIC determination by CLSI broth dilution, A. baumannii MP-15; conditions: Acinetobacter baumannii, MP15, strain MP-15, read-out: MIC A. baumanii MP-15
K. pneumoniae MP-546 = assay: MIC determination by CLSI broth dilution, K. pneumoniae MP-546; conditions: Klebsiella pneumoniae, MP546, CLSI broth dilution; strain MP-546
P. aeruginosa MP-3 = assay: MIC determination by CLSI broth dilution, P. aeruginosa MP-3; conditions: Pseudomonas aeruginosa, MP3, strain MP-3
S. aureus MP-12 = assay: microbe, parasite or virus in culture; conditions: Staphylococcus aureus, MP12, read-out: MIC S. aureus MP-12

CO[C@]1(C)C[C@@H](C)CN(C)[C@@H](CCCN2CCC[C@@H]2C)COC(=O)C(C)(C)C(=O)[C@H](C)[C@H]1O[C@@H]1O[C@H](C)C[C@H](N(C)C)[C@H]1O [Compound 117, (3S,6R,8R,9R,10R)-9-(((2S,3R,4S,6R)-4-(dimethylamino)-3-hydroxy-6-methyltetrahydro-2H-pyran-2-yl)oxy)-8-methoxy-4,6,8,10,12,12-hexamethyl-3-(3-((S)-2-methylpyrrolidin-1-yl)propyl)-1-oxa-4-azacyclotridecane-11,13-dione]
MIC (K. pneumoniae MP-648): < 4 µg/mL | MIC (E. coli MP-4): < 4 µg/mL | MIC (A. baumannii MP-15): > 32 µg/mL | MIC (K. pneumoniae MP-546): < 4 µg/mL | MIC (P. aeruginosa MP-3): > 32 µg/mL | MIC (S. aureus MP-12): < 4 µg/mL

CCN1CCC(C[C@@H]2COC(=O)C(C)(C)C(=O)[C@H](C)[C@@H](O[C@@H]3O[C@H](C)C[C@H](N(C)C)[C@H]3O)[C@](C)(OC)C[C@@H](C)CN2CC)CC1 [Compound 118, (3R,6R,8R,9R,10R)-9-(((2S,3R,4S,6R)-4-(dimethylamino)-3-hydroxy-6-methyltetrahydro-2H-pyran-2-yl)oxy)-4-ethyl-3-((1-ethylpiperidin-4-yl)methyl)-8-methoxy-6,8,10,12,12-pentamethyl-1-oxa-4-azacyclotridecane-11,13-dione]
MIC (K. pneumoniae MP-648): < 4 µg/mL | MIC (E. coli MP-4): < 4 µg/mL | MIC (A. baumannii MP-15): 4 to 32 µg/mL (≈ 6.25 to 50 µM) | MIC (K. pneumoniae MP-546): < 4 µg/mL | MIC (P. aeruginosa MP-3): > 32 µg/mL | MIC (S. aureus MP-12): 4 to 32 µg/mL (≈ 6.25 to 50 µM)

CO[C@]1(C)C[C@@H](C)CN(C)[C@@H](CCCN2CCc3ccccc3C2)COC(=O)C(C)(C)C(=O)[C@H](C)[C@H]1O[C@@H]1O[C@H](C)C[C@H](N(C)C)[C@H]1O [Compound 120, (3S,6R,8R,9R,10R)-3-(3-(3,4-dihydroisoquinolin-2 (1H)-yl)propyl)-9-(((2S,3R,4S,6R)-4-(dimethylamino)-3-hydroxy-6-methyltetrahydro-2H-pyran-2-yl)oxy)-8-methoxy-4,6,8,10,12,12-hexamethyl-1-oxa-4-azacyclotridecane-11,13-dione]
MIC (K. pneumoniae MP-648): < 4 µg/mL | MIC (E. coli MP-4): < 4 µg/mL | MIC (A. baumannii MP-15): 4 to 32 µg/mL (≈ 5.94 to 47.5 µM) | MIC (K. pneumoniae MP-546): < 4 µg/mL | MIC (P. aeruginosa MP-3): > 32 µg/mL | MIC (S. aureus MP-12): < 4 µg/mL

CO[C@]1(C)C[C@@H](C)CN(CC(C)C)[C@@H](CCCN2CCCCC2)COC(=O)C(C)(C)C(=O)[C@H](C)[C@H]1O[C@@H]1O[C@H](C)C[C@H](N(C)C)[C@H]1O [Compound 121, (3S,6R,8R,9R,10R)-9-(((2S,3R,4S,6R)-4-(dimethylamino)-3-hydroxy-6-methyltetrahydro-2H-pyran-2-yl)oxy)-4-isobutyl-8-methoxy-6,8,10,12,12-pentamethyl-3-(3-(piperidin-1-yl)propyl)-1-oxa-4-azacyclotridecane-11,13-dione]
MIC (K. pneumoniae MP-648): 4 to 32 µg/mL (≈ 5.99 to 47.9 µM) | MIC (E. coli MP-4): < 4 µg/mL | MIC (A. baumannii MP-15): > 32 µg/mL | MIC (K. pneumoniae MP-546): 4 to 32 µg/mL (≈ 5.99 to 47.9 µM) | MIC (P. aeruginosa MP-3): > 32 µg/mL | MIC (S. aureus MP-12): 4 to 32 µg/mL (≈ 5.99 to 47.9 µM)

CO[C@]1(C)C[C@@H](C)CN(C)[C@@H](CCCN2CCC[C@H]2C)COC(=O)C(C)(C)C(=O)[C@H](C)[C@H]1O[C@@H]1O[C@H](C)C[C@H](N(C)C)[C@H]1O [Compound 122, (3S,6R,8R,9R,10R)-9-(((2S,3R,4S,6R)-4-(dimethylamino)-3-hydroxy-6-methyltetrahydro-2H-pyran-2-yl)oxy)-8-methoxy-4,6,8,10,12,12-hexamethyl-3-(3-((R)-2-methylpyrrolidin-1-yl)propyl)-1-oxa-4-azacyclotridecane-11,13-dione]
MIC (K. pneumoniae MP-648): < 4 µg/mL | MIC (E. coli MP-4): < 4 µg/mL | MIC (A. baumannii MP-15): > 32 µg/mL | MIC (K. pneumoniae MP-546): < 4 µg/mL | MIC (P. aeruginosa MP-3): > 32 µg/mL | MIC (S. aureus MP-12): 4 to 32 µg/mL (≈ 6.39 to 51.1 µM)

CO[C@]1(C)C[C@@H](C)CN(C)[C@@H](CCCN2CCC[C@@H]2C(F)(F)F)COC(=O)C(C)(C)C(=O)[C@H](C)[C@H]1O[C@@H]1O[C@H](C)C[C@H](N(C)C)[C@H]1O [Compound 123, (3S,6R,8R,9R,10R)-9-(((2S,3R,4S,6R)-4-(dimethylamino)-3-hydroxy-6-methyltetrahydro-2H-pyran-2-yl)oxy)-8-methoxy-4,6,8,10,12,12-hexamethyl-3-(3-((R)-2-(trifluoromethyl)pyrrolidin-1-yl)propyl)-1-oxa-4-azacyclotridecane-11,13-dione]
MIC (K. pneumoniae MP-648): > 32 µg/mL | MIC (E. coli MP-4): > 32 µg/mL | MIC (A. baumannii MP-15): > 32 µg/mL | MIC (K. pneumoniae MP-546): > 32 µg/mL | MIC (P. aeruginosa MP-3): > 32 µg/mL | MIC (S. aureus MP-12): > 32 µg/mL

CO[C@]1(C)C[C@@H](C)CN(C)[C@@H](CCCN2CC[C@H](F)C2)COC(=O)C(C)(C)C(=O)[C@H](C)[C@H]1O[C@@H]1O[C@H](C)C[C@H](N(C)C)[C@H]1O [Compound 125, (3S,6R,8R,9R,10R)-9-(((2S,3R,4S,6R)-4-(dimethylamino)-3-hydroxy-6-methyltetrahydro-2H-pyran-2-yl)oxy)-3-(3-((S)-3-fluoropyrrolidin-1-yl)propyl)-8-methoxy-4,6,8,10,12,12-hexamethyl-1-oxa-4-azacyclotridecane-11,13-dione]
MIC (K. pneumoniae MP-648): 4 to 32 µg/mL (≈ 6.35 to 50.8 µM) | MIC (E. coli MP-4): < 4 µg/mL | MIC (A. baumannii MP-15): > 32 µg/mL | MIC (K. pneumoniae MP-546): < 4 µg/mL | MIC (P. aeruginosa MP-3): > 32 µg/mL | MIC (S. aureus MP-12): 4 to 32 µg/mL (≈ 6.35 to 50.8 µM)

CCCN1C[C@H](C)C[C@@](C)(OC)[C@H](O[C@@H]2O[C@H](C)C[C@H](N(C)C)[C@H]2O)[C@@H](C)C(=O)C(C)(C)C(=O)OC[C@@H]1CCCN1Cc2ccccc2C1 [Compound 126, (3S,6R,8R,9R,10R)-9-(((2S,3R,4S,6R)-4-(dimethylamino)-3-hydroxy-6-methyltetrahydro-2H-pyran-2-yl)oxy)-3-(3-(isoindolin-2-yl)propyl)-8-methoxy-6,8,10,12,12-pentamethyl-4-propyl-1-oxa-4-azacyclotridecane-11,13-dione]
MIC (K. pneumoniae MP-648): < 4 µg/mL | MIC (E. coli MP-4): < 4 µg/mL | MIC (A. baumannii MP-15): 4 to 32 µg/mL (≈ 5.81 to 46.5 µM) | MIC (K. pneumoniae MP-546): < 4 µg/mL | MIC (P. aeruginosa MP-3): > 32 µg/mL | MIC (S. aureus MP-12): < 4 µg/mL

CCCN1C[C@H](C)C[C@@](C)(OC)[C@H](O[C@@H]2O[C@H](C)C[C@H](N(C)C)[C@H]2O)[C@@H](C)C(=O)C(C)(C)C(=O)OC[C@@H]1CCCN1CCCC1 [Compound 127, (3S,6R,8R,9R,10R)-9-(((2S,3R,4S,6R)-4-(dimethylamino)-3-hydroxy-6-methyltetrahydro-2H-pyran-2-yl)oxy)-8-methoxy-6,8,10,12,12-pentamethyl-4-propyl-3-(3-(pyrrolidin-1-yl)propyl)-1-oxa-4-azacyclotridecane-11,13-dione]
MIC (K. pneumoniae MP-648): < 4 µg/mL | MIC (E. coli MP-4): < 4 µg/mL | MIC (A. baumannii MP-15): > 32 µg/mL | MIC (K. pneumoniae MP-546): < 4 µg/mL | MIC (P. aeruginosa MP-3): > 32 µg/mL | MIC (S. aureus MP-12): 4 to 32 µg/mL (≈ 6.25 to 50 µM)

CO[C@]1(C)C[C@@H](C)CN(C)[C@@H](CCCN2CCC(C)(C)CC2)COC(=O)C(C)(C)C(=O)[C@H](C)[C@H]1O[C@@H]1O[C@H](C)C[C@H](N(C)C)[C@H]1O [Compound 128, (3S,6R,8R,9R,10R)-9-(((2S,3R,4S,6R)-4-(dimethylamino)-3-hydroxy-6-methyltetrahydro-2H-pyran-2-yl)oxy)-3-(3-(4,4-dimethylpiperidin-1-yl)propyl)-8-methoxy-4,6,8,10,12,12-hexamethyl-1-oxa-4-azacyclotridecane-11,13-dione]
MIC (K. pneumoniae MP-648): < 4 µg/mL | MIC (E. coli MP-4): < 4 µg/mL | MIC (A. baumannii MP-15): > 32 µg/mL | MIC (K. pneumoniae MP-546): < 4 µg/mL | MIC (P. aeruginosa MP-3): > 32 µg/mL | MIC (S. aureus MP-12): 4 to 32 µg/mL (≈ 6.12 to 48.9 µM)

CCN1C[C@H](C)C[C@@](C)(OC)[C@H](O[C@@H]2O[C@H](C)C[C@H](N(C)C)[C@H]2O)[C@@H](C)C(=O)C(C)(C)C(=O)OC[C@@H]1CCCN1CCCCC1 [Compound 129, (3S,6R,8R,9R,10R)-9-(((2S,3R,4S,6R)-4-(dimethylamino)-3-hydroxy-6-methyltetrahydro-2H-pyran-2-yl)oxy)-4-ethyl-8-methoxy-6,8,10,12,12-pentamethyl-3-(3-(piperidin-1-yl)propyl)-1-oxa-4-azacyclotridecane-11,13-dione]
MIC (K. pneumoniae MP-648): < 4 µg/mL | MIC (E. coli MP-4): < 4 µg/mL | MIC (A. baumannii MP-15): > 32 µg/mL | MIC (K. pneumoniae MP-546): < 4 µg/mL | MIC (P. aeruginosa MP-3): > 32 µg/mL | MIC (S. aureus MP-12): 4 to 32 µg/mL (≈ 6.25 to 50 µM)

CO[C@]1(C)C[C@@H](C)CN(C)[C@H](C[C@H]2C[C@H](N(C)CC3CC3)C2)COC(=O)C(C)(C)C(=O)[C@H](C)[C@H]1O[C@@H]1O[C@H](C)C[C@H](N(C)C)[C@H]1O [Compound 138, (3R,6R,8R,9R,10R)-3-(((1r,3S)-3-((cyclopropylmethyl)(methyl)amino)cyclobutyl)methyl)-9-(((2S,3R,4S,6R)-4-(dimethylamino)-3-hydroxy-6-methyltetrahydro-2H-pyran-2-yl)oxy)-8-methoxy-4,6,8,10,12,12-hexamethyl-1-oxa-4-azacyclotridecane-11,13-dione]
MIC (K. pneumoniae MP-648): < 4 µg/mL | MIC (E. coli MP-4): < 4 µg/mL | MIC (A. baumannii MP-15): > 32 µg/mL | MIC (K. pneumoniae MP-546): < 4 µg/mL | MIC (P. aeruginosa MP-3): > 32 µg/mL | MIC (S. aureus MP-12): < 4 µg/mL

CCN1C[C@H](C)C[C@@](C)(OC)[C@H](O[C@@H]2O[C@H](C)C[C@H](N(C)C)[C@H]2O)[C@@H](C)C(=O)C(C)(C)C(=O)OC[C@H]1CCCN1CCCCC1 [Compound 140, (3R,6R,8R,9R,10R)-9-(((2S,3R,4S,6R)-4-(dimethylamino)-3-hydroxy-6-methyltetrahydro-2H-pyran-2-yl)oxy)-4-ethyl-8-methoxy-6,8,10,12,12-pentamethyl-3-(3-(piperidin-1-yl)propyl)-1-oxa-4-azacyclotridecane-11,13-dione]
MIC (K. pneumoniae MP-648): < 4 µg/mL | MIC (E. coli MP-4): < 4 µg/mL | MIC (A. baumannii MP-15): > 32 µg/mL | MIC (K. pneumoniae MP-546): < 4 µg/mL | MIC (P. aeruginosa MP-3): > 32 µg/mL | MIC (S. aureus MP-12): 4 to 32 µg/mL (≈ 6.25 to 50 µM)

CO[C@]1(C)C[C@@H](C)CN(CC(C)C)[C@@H](CCCN2CCc3ccccc3C2)COC(=O)C(C)(C)C(=O)[C@H](C)[C@H]1O[C@@H]1O[C@H](C)C[C@H](N(C)C)[C@H]1O [Compound 141, (3S,6R,8R,9R,10R)-3-(3-(3,4-dihydroisoquinolin-2 (1H)-yl)propyl)-9-(((2S,3R,4S,6R)-4-(dimethylamino)-3-hydroxy-6-methyltetrahydro-2H-pyran-2-yl)oxy)-4-isobutyl-8-methoxy-6,8,10,12,12-pentamethyl-1-oxa-4-azacyclotridecane-11,13-dione]
MIC (K. pneumoniae MP-648): 4 to 32 µg/mL (≈ 5.59 to 44.7 µM) | MIC (E. coli MP-4): < 4 µg/mL | MIC (A. baumannii MP-15): > 32 µg/mL | MIC (K. pneumoniae MP-546): < 4 µg/mL | MIC (P. aeruginosa MP-3): > 32 µg/mL | MIC (S. aureus MP-12): < 4 µg/mL
